Like-named read-outs stand apart in the source and are kept apart here.
What was measured:
Format in all cases: in vivo
Tetranychus urticae = Tetranychus urticae (two-spotted spider mite) bean leaf disc spray test; conditions: foliar, 192 h, read-out: control of Tetranychus urticae
Method: (§1) These Examples illustrate the insecticidal and acaricidal properties of the compounds of formula (I). The tests were performed as follows:
(§2) Cotton leaf discs were placed on agar in a 24-well microtiter plate and sprayed with test solutions at an application rate of 200 ppm. After drying, the leaf discs were infested with 5 L1 larvae. The samples were checked for mortality, feeding behavior, and growth regulation 3 days after treatment (DAT). The following compound gave at least 80% control of Spodoptera littoralis: A1, A2, A3, A4, A5, A6, A7, A8, A9, A10, A11, A12, A14, A15, A16, A17, A18, A19, A20. Heliothis Virescens (Tobacco Budworm): Eggs (0-24 h old) were placed in 24-well microtiter plate on artificial diet and treated with test solutions at an application rate of 200 ppm (concentration in well 18 ppm) by pipetting. After an incubation period of 4 days, samples were checked for egg mortality, larval mortality, and growth regulation. The following compound gave at least 80% control of Heliothis virescens: A1, A2, A3, A4, A5, A6, A7, A8, A9, A10, A11, A12, A14, A15, A16, A17, A18, A19, A20. Plutella Xylostella (Diamond Back Moth): 24-well microtiter plate (MTP) with artificial diet was treated with test solutions at an application rate of 200 ppm (concentration in well 18 ppm) by pipetting. After drying, the MTP's were infested with L2 larvae (7-12 per well). After an incubation period of 6 days, samples were checked for larval mortality and growth regulation. The following compound gave at least 80% control of Plutella xylostella: A1, A2, A3, A4, A5, A6, A7, A8, A9, A10, A11, A12, A13, A14, A15, A16, A17, A18, A19, A20. Diabrotica Balteata (Corn Root Worm): A 24-well microtiter plate (MTP) with artificial diet was treated with test solutions at an application rate of 200 ppm (concentration in well 18 ppm) by pipetting. After drying, the MTP's were infested with L2 larvae (6-10 per well). After an incubation period of 5 days, samples were checked for larval mortality and growth regulation. The following compound gave at least 80% control of Diabrotica balteata: A1, A2, A3, A4, A5, A6, A7, A8, A9, A10, A11, A12, A13, A14, A16, A17, A18, A19, A20. Thrips Tabaci (Onion Thrips): Sunflower leaf discs were placed on agar in a 24-well microtiter plate and sprayed with test solutions at an application rate of 200 ppm. After drying, the leaf discs were infested with an […] population of mixed ages. After an incubation period of 7 days, samples were checked for mortality. The following compounds gave at least 80% control of Thrips tabaci: A1, A2, A3, A4, A5, A6, A7, A8, A9, A10, A14, A16, A17, A18, A19, A20. Tetranychus Urticae (Two-Spotted Spider Mite): Bean leaf discs on agar in 24-well microtiter plates were sprayed with test solutions at an application rate of 200 ppm. After drying, the leaf discs are infested with mite populations of mixed ages. 8 days later, discs are checked for egg mortality, larval mortality, and adult mortality. The following compounds gave at least 80% control of Tetranychus urticae: A1, A2, A3, A4, A5, A6, A7, A8, A9, A10, A11, A12, A13, A14, A15, A16, A17, A19, A20.

Heliothis virescens = Heliothis virescens (tobacco budworm) egg test on artificial diet; conditions: 96 h, application rate 200 ppm (concentration in well 18 ppm), eggs 0-24 h old on artificial diet, egg mortality, larval mortality and growth regulation after 4 days
Method: as §1, §2

Plutella xylostella = Plutella xylostella (diamond back moth) artificial diet test; conditions: 144 h, application rate 200 ppm (concentration in well 18 ppm), L2 larvae, larval mortality and growth regulation after 6 days
Method: as §1, §2

Spodoptera littoralis = Spodoptera littoralis (Egyptian cotton leafworm) leaf disc spray test; conditions: foliar, 72 h, application rate 200 ppm, cotton leaf discs, 5 L1 larvae, mortality, feeding behavior and growth regulation 3 days after treatment
Method: as §1, §2

Thrips tabaci = Thrips tabaci (onion thrips) sunflower leaf disc spray test; conditions: foliar, 168 h, application rate 200 ppm, sunflower leaf discs, population of mixed ages, mortality after 7 days
Method: as §1, §2

Diabrotica balteata = Diabrotica balteata (corn root worm) artificial diet test; conditions: 120 h, application rate 200 ppm (concentration in well 18 ppm), L2 larvae, larval mortality and growth regulation after 5 days
Method: as §1, §2

[1] = application rate 200 ppm, bean leaf discs, mite populations of mixed ages, egg, larval and adult mortality 8 days later

Measured: pest or weed control at 200 ppm

Cc1cc(C#N)ccc1C(=O)Nc1cc(C(=O)Nc2c(Cl)cc(C(F)(C(F)(F)F)C(F)(F)C(F)(F)F)cc2Cl)ccc1C#N (stereo not drawn) [A8, 4-cyano-3-(4′-cyano-2′-methylbenzoylamino)-N-[2,6-dichloro-4-(1,2,2,3,3,3-hexafluoro-1-trifluoromethylpropyl)phenyl]benzamide]
≥ 80%: Tetranychus urticae; [1] | Heliothis virescens | Plutella xylostella | Spodoptera littoralis | Thrips tabaci | Diabrotica balteata

COCc1cc(C(F)(C(F)(F)F)C(F)(F)C(F)(F)F)cc(C)c1NC(=O)c1ccc(C#N)c(NC(=O)c2ccc(C#N)cc2C)c1 (stereo not drawn) [A9, 4-cyano-3-(4′-cyano-2′-methyl-benzoylamino)-N-[4-(1,2,2,3,3,3-hexafluoro-1-trifluoromethylpropyl)-2-methoxymethyl-6-methylphenyl]benzamide]
≥ 80%: Tetranychus urticae; [1] | Heliothis virescens | Plutella xylostella | Spodoptera littoralis | Thrips tabaci | Diabrotica balteata

CSc1cc(C(F)(C(F)(F)F)C(F)(F)C(F)(F)F)cc(Cl)c1NC(=O)c1ccc(C#N)c(NC(=O)c2ccc(C#N)cc2C)c1 (stereo not drawn) [A10, N-[2-chloro-4-(1,2,2,3,3,3-hexafluoro-1-trifluoromethylpropyl)-6-methylthiophenyl]-4-cyano-3-(4′-cyano-2′-methylbenzoylamino)benzamide]
≥ 80%: Tetranychus urticae; [1] | Heliothis virescens | Plutella xylostella | Spodoptera littoralis | Thrips tabaci | Diabrotica balteata

Cc1cc(C#N)ccc1C(=O)Nc1cc(C(=O)Nc2c(Cl)cc(C(F)(C(F)(F)F)C(F)(F)F)c(F)c2Cl)ccc1C#N [A14, 4-cyano-3-(4′-cyano-2′-methylbenzoylamino)-N-[2,6-dichloro-3-fluoro-4-(1,2,2,2-tetrafluoro-1-trifluoromethylethyl)phenyl]benzamide]
≥ 80%: Tetranychus urticae; [1] | Heliothis virescens | Plutella xylostella | Spodoptera littoralis | Thrips tabaci | Diabrotica balteata

Cc1cc(C#N)ccc1C(=O)Nc1cc(C(=O)Nc2c(C)cc(C(F)(C(F)(F)F)C(F)(F)C(F)(F)F)cc2C)ccc1C#N (stereo not drawn) [A16, 4-cyano-3-(4′-cyano-2′-methyl-benzoylamino)-N-[2,6-dimethyl-4-(1,2,2,3,3,3-hexafluoro-1-trifluoromethylpropyl)phenyl]benzamide]
≥ 80%: Tetranychus urticae; [1] | Heliothis virescens | Plutella xylostella | Spodoptera littoralis | Thrips tabaci | Diabrotica balteata

Cc1cc(C#N)ccc1C(=O)Nc1cc(C(=O)Nc2c(C)cc(C3(F)C(F)(F)C(F)(F)C(F)(F)C(F)(F)C3(F)F)cc2C)ccc1C#N [A17, 4-cyano-3-(4′-cyano-2′-methylbenzoylamino)-N-[2,6-dimethyl-4-(undecafluorocyclohexyl)phenyl]benzamide]
≥ 80%: Tetranychus urticae | Heliothis virescens | Plutella xylostella | Spodoptera littoralis | Thrips tabaci | Diabrotica balteata

Cc1cc(C#N)ccc1C(=O)Nc1cc(C(=O)Nc2c(Cl)cc(C(F)(C(F)(F)F)C(F)(F)F)cc2Cl)ccc1C#N [A19, 4-cyano-3-(4′-cyano-2′-methylbenzoylamino)-N-[2,6-dichloro-4-(1,2,2,2-tetrafluoro-1-trifluoromethylethyl)phenyl]benzamide]
≥ 80%: Tetranychus urticae; [1] | Heliothis virescens | Plutella xylostella | Spodoptera littoralis | Thrips tabaci | Diabrotica balteata

Cc1cc(C#N)ccc1C(=O)Nc1cc(C(=O)Nc2c(Cl)cc(C(F)(C(F)(F)F)C(F)(F)F)cc2Br)ccc1C#N [A20, 4-cyano-3-(4′-cyano-2′-methylbenzoylamino)-N-[2-bromo-6-chloro-4-(1,2,2,2-tetrafluoro-1-trifluoromethylethyl)phenyl]benzamide]
≥ 80%: Tetranychus urticae; [1] | Heliothis virescens | Plutella xylostella | Spodoptera littoralis | Thrips tabaci | Diabrotica balteata
